Test results reported in the supplement of paper PMC10307832.

Legend:
Experiment in all cases: relative viability (nuclei count vs DMSO), 5 days (fraction); higher = more cells survive
[1] = compound: CC1=CC(=NN1)NC2=CC(=NC(=N2)/C=C/C3=CC=CC=C3)N4CCN(CC4)C + Cc1cc(Nc2cc(N3CCN(C)CC3)nc(Sc3ccc(NC(=O)C4CC4)cc3)n2)n[nH]1 [Tozasertib] (partner 0.1 µM)
Outline: (§1)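 Nuclei were stained with Hoechst during a one-step fixation (final 0.05% Triton X-100, 1% formaldehyde, 1 ug/ml Hoechst) carried out 5 days after dosing, then counted on 4× images. The cells, lung cancer lines in 1536-well plates, had been dosed by pin tool the day after seeding with one drug alone or a fixed anchor-drug dose plus five library-drug doses (not always all listed) in √10 steps. Relative viability is the nuclei count in treated wells divided by that in vehicle wells, and each value is the median of duplicate plates.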

[2] = compound: CC1=CC(=NN1)NC2=CC(=NC(=N2)/C=C/C3=CC=CC=C3)N4CCN(CC4)C + O=C(c1cc(Cc2n[nH]c(=O)c3ccccc23)ccc1F)N1CCN(C(=O)C2CC2)CC1 [Olaparib] (partner 8 µM)
Outline: as §1

Bortezomib + Tozasertib = compound: CC(C)C[C@H](NC(=O)[C@H](Cc1ccccc1)NC(=O)c1cnccn1)B(O)O [Bortezomib] + Cc1cc(Nc2cc(N3CCN(C)CC3)nc(Sc3ccc(NC(=O)C4CC4)cc3)n2)n[nH]1 [Tozasertib] (partner 0.1 µM)
Outline: as §1

Obatoclax + Trametinib = compound: COC1=CC(c2cc3ccccc3[nH]2)=N/C1=C\c1[nH]c(C)cc1C [Obatoclax] + CC(=O)Nc1cccc(-n2c(=O)n(C3CC3)c(=O)c3c(Nc4ccc(I)cc4F)n(C)c(=O)c(C)c32)c1 [Trametinib] (partner 0.02 µM)
Outline: as §1

Cell Line | relative viability ([1]; first compound 0.08 µM) | relative viability ([1]; first compound 0.253 µM) | relative viability ([1]; first compound 0.8 µM) | relative viability ([1]; first compound 2.53 µM) | relative viability ([1]; first compound 8 µM) | relative viability ([2]; first compound 0.08 µM) | relative viability ([2]; first compound 0.253 µM) | relative viability ([2]; first compound 0.8 µM) | relative viability ([2]; first compound 2.53 µM) | relative viability ([2]; first compound 8 µM) | relative viability (Bortezomib + Tozasertib; first compound 0.0002 µM) | relative viability (Bortezomib + Tozasertib; first compound 0.000632 µM) | relative viability (Bortezomib + Tozasertib; first compound 0.002 µM) | relative viability (Bortezomib + Tozasertib; first compound 0.006325 µM) | relative viability (Bortezomib + Tozasertib; first compound 0.02 µM) | relative viability (Obatoclax + Trametinib; first compound 0.01 µM) | relative viability (Obatoclax + Trametinib; first compound 0.03162 µM) | relative viability (Obatoclax + Trametinib; first compound 0.1 µM) | relative viability (Obatoclax + Trametinib; first compound 0.3162 µM) | relative viability (Obatoclax + Trametinib; first compound 1 µM)
NCI-H441 | 0.642 | 0.592 | 0.599 | 0.287 | 0.189 | 0.569 | 0.55 | 0.503 | 0.401 | 0.116 | 0.66 | 0.799 | 0.383 | 0.186 | 0.191 | 0.505 | 0.353 | 0.427 | 0.27 | 0.194
NCI-H460 | 0.371 | 0.394 | 0.313 | 0.0338 | 0.0166 | 0.38 | 0.362 | 0.427 | 0.147 | 0.025 | 0.386 | 0.366 | 0.616 | 0.304 | 0.0187 | 0.151 | 0.132 | 0.232 | 0.0458 | 0.0584
NCI-H520 | 0.432 | 0.464 | 0.381 | 0.307 | 0.176 | 0.3 | 0.332 | 0.307 | 0.152 | 0.104 | 0.482 | 0.401 | 0.262 | 0.24 | 0.232 | 0.675 | 0.777 | 0.86 | 0.439 | 0.269
NCI-H522 | 0.559 | 0.579 | 0.684 | 0.462 | 0.399 | 0.64 | 0.647 | 0.61 | 0.472 | 0.319 | 0.475 | 0.529 | 0.419 | 0.344 | 0.337 | 0.683 | 0.765 | 0.805 | 0.783 | 0.867
NCI-H596 | 0.783 | 1.01 | 0.896 | 0.508 | 0.244 | 0.729 | 0.607 | 0.601 | 0.412 | 0.24 | 0.82 | 0.949 | 0.753 | 0.188 | 0.155 | 0.814 | 0.784 | 0.692 | 0.652 | 0.565
NCI-H647 | 0.236 | 0.202 | 0.257 | 0.123 | 0.108 | 0.524 | 0.521 | 0.493 | 0.0425 | 0.0194 | 0.297 | 0.19 | 0.203 | 0.0209 | 0.0248 | 0.406 | 0.475 | 0.422 | 0.22 | 0.127
NCI-H661 | 0.321 | 0.344 | 0.339 | 0.382 | 0.394 | 0.658 | 0.826 | 0.752 | 0.424 | 0.275 | 0.367 | 0.355 | 0.341 | 0.287 | 0.201 | 0.585 | 0.553 | 0.593 | 0.493 | 0.473
NCI-H727 | 0.568 | 0.533 | 0.578 | 0.407 | 0.267 | 0.708 | 0.635 | 0.791 | 0.722 | 0.44 | 0.688 | 0.775 | 0.606 | 0.394 | 0.162 | 0.41 | 0.393 | 0.414 | 0.404 | 0.391
NCI-H838 | 0.296 | 0.287 | 0.271 | 0.211 | 0.119 | 0.752 | 0.749 | 0.564 | 0.139 | 0.0822 | 0.251 | 0.298 | 0.327 | 0.109 | 0.123 | 0.548 | 0.559 | 0.346 | 0.493 | 0.248
NCI-H1355 | 0.536 | 0.502 | 0.511 | 0.173 | 0.129 | 0.707 | 0.813 | 0.69 | 0.324 | 0.113 | 0.503 | 0.591 | 0.584 | 0.131 | 0.122 | 0.403 | 0.462 | 0.439 | 0.35 | 0.454
NCI-H1395 | 0.76 | 0.751 | 0.566 | 0.496 | 0.315 | 0.472 | 0.462 | 0.445 | 0.355 | 0.278 | 0.793 | 0.692 | 0.576 | 0.288 | 0.274 | 0.914 | 0.999 | 0.931 | 0.94 | 0.737
NCI-H1437 | 0.422 | 0.462 | 0.424 | 0.344 | 0.201 | 0.603 | 0.664 | 0.631 | 0.416 | 0.138 | 0.405 | 0.405 | 0.403 | 0.114 | 0.118 | 0.512 | 0.471 | 0.642 | 0.498 | 0.359
NCI-H1648 | 0.42 | 0.543 | 0.643 | 0.46 | 0.215 | 0.979 | 0.797 | 0.813 | 0.747 | 0.361 | 0.439 | 0.396 | 0.262 | 0.453 | 0.257 | 0.52 | 0.406 | 0.559 | 0.51 | 0.457
NCI-H1650 | 0.384 | 0.384 | 0.373 | 0.187 | 0.169 | 0.831 | 0.831 | 0.764 | 0.748 | 0.0952 | 0.426 | 0.57 | 0.19 | 0.139 | 0.153 | 0.763 | 0.724 | 0.652 | 0.36 | 0.303
NCI-H1651 | 0.678 | 0.658 | 0.661 | 0.296 | 0.177 | 0.177 | 0.189 | 0.176 | 0.166 | 0.135 | 0.694 | 0.72 | 0.619 | 0.099 | 0.101 | 0.847 | 0.811 | 0.846 | 0.845 | 0.836
